From US5962525A, “6,7-disubstituted-2-aminotetralines active as immunomodulators and pharmaceutical compositions containing same” (Sigma-Tau, priority 1990, dated 1999)
Several values for one entry are separate records, joined by “and”; a condition that tells them apart may be missing. Equal values may be shown once. Read-outs that look alike come from different tables or passages of the source.

Assays:
[1] = test system: splenocytes; assay: "In vitro-ex vivo" effect on the mytogen (PHA, LPS)-induced splenocyte proliferation in mice; parameters: species or system mouse (B6 D2 F1); conditions: 25 mg/kg/day i.p.
Experimental: Assessment of the "in vitro-ex vivo" effect of ST 557, ST 563, ST 608 on the mytogen (PHA, LPS)-induced splenocyte proliferation in mice
Male B6 D2 F1 mice aged 6-10 weeks (4 animals per group) were used.
The compounds were administered i.p. 25 mg/kg/day, from day -5 to -1 (spleen excision at day 0).
PHA (active on T lymphocytes) and LPS (active on B lymphocytes) were used as mytogens. Each mytogen was tested at three different concentrations (suboptimal, optimal, superoptimal): 0.5, 4 and 6 mcg/ml/well and 0.5, 150 and 500 mcg/ml/well, respectively.
The experimental procedure was conducted substantially as described by Kirchner et al., "Splenic suppressor macrophages induced in mice by injection of C. parvum", J. Immunol., 1975, 115: 1212.
In particular, the cell suspensions obtained from the spleens of the animals of the same group were pooled and the cell concentration was adjusted to 5×10^6 cells/ml.
To volumes of 0.1 ml of each sample, equal volumes of the mytogen preparations were added so as to obtain, for each mytogen, the previously indicated final concentrations.
Each sample was prepared in triplicate in U-bottom microtiters. A control, to which 0.1 ml of medium were added instead of the mytogen, was also prepared. The control permits the extent of spontaneous proliferation in the absence of stimulation to be assessed.
The samples were incubated at 37° C. for 48 hours and then they were pulsed with 20 μl ^3 H-TdR (25 μCi/ml).
After 18 hours of further incubation, the cells were collected on filters and counted in a beta-counter.
The results of each sample are expressed by calculating the value of the area under the curve (AUC) obtained by plotting the values of the incorporated radioactivity (in cpm) versus the various concentrations of each mytogen.
In addition to AUC, the stimulation index (SI) is also considered, that is defined as follows. [formula]

[2] = test system: murine peritoneal exudate cells (PEC); assay: "In vitro-ex vivo" effect on the phagocytic activity of exudate peritoneal cells (SRBC phagocytosis); parameters: species or system mouse (B6 D2 F1); conditions: for SRBC per phagocytizing cell: average number of SRBC in each phagocyte
Experimental: Assessment of the "in vitro-ex vivo" effect of ST 557, ST 563, ST 564, ST 570, ST 608 and ST 626 on the phagocytic activity of exudate peritoneal cells (PEC)
Male B6 D2 F1 mice aged 6-8 weeks (5 animals each group) were used.
The compounds were administered i.p. (25 mg/kg/day), ST 557, ST 563 and ST 626 were also administered per os (100 mg/kg/day) from day -5 to day -1 (PEC harvesting at day 0).
The experimental procedure was substantially the same as that described by Williams et al., in "Methods in Immunology and Immunochemistry", Acad. Press. 5: 261 (1976).
In particular, 24 hours following the end of the treatment, PECs from each experimental group were harvested, pooled and their concentration was adjusted to 4×10^6 cells/ml.
To volumes of 250 μl of each PEC sample were added equal volumes of 0.4% SRBC (Sheep Red Blood Cells) opsonized with hyperimmune serum.
The samples (duplicate) were incubated for 1 hour and then subjected to hypotonic shock in order to remove the non-phagocytized SRBC. After restoring the osmolarity, the phagocytes were cytocentrifuged, stained with a differential dye and observed under the microscope.
The results were expressed as:
(a) percentage of cells that have phagocytized with respect to 100 phagocytizing cells;
(b) total number of phagocytized SRBC;
(c) average number of SRBC in each phagocyte.

[3] = test system: murine peritoneal exudate cells (PEC); assay: as above; parameters: species or system mouse (B6 D2 F1); conditions: 26 mg/kg/day i.p. (so in the source)
[4] = test system: peritoneal macrophages of treated mice; target tumor cells; assay: "In vitro-ex vivo" effect on the cytostatic activity of peritoneal macrophages; parameters: species or system mouse (B6 D2 F1); tumor targets human
Experimental: Assessment of the "in vitro-ex vivo" effect of ST 557, ST 563 and ST 570 on the cytostatic activity of peritoneal macrophages
Male B6 D2 F1 mice aged 7-9 weeks (5 animals per group) were used.
The compounds were administered i.p. (25 mg/kg/day), ST 557 and ST 563 were also administered per os (100 mg/kg/day) from day -5 to day -1 (peritoneal cell harvesting at day 0).
The macrophages and target tumor cell lines were prepared as in test 1 and their concentrations were adjusted to 1×10^6 M/ml and 5×10^4 cell/ml, respectively.
Volumes of tumor cells were added to the macrophage preparations so as to obtain Effector/Target ratios of 10:1, 20:1 and 40:1.
Each sample was pulsed with ^3 H-TdR for 18 hours in order to label the tumor cells, which were then collected on filters and counted in a beta-counter.
The macrophage cytostatic activity is expressed as percentage inhibition of tumor cell replication, by assessing the radioactivity incorporated by the tumor cells in each sample with respect to the maximum radioactivity incorporated by a sample consisting of tumor cells only. [formula]

[5] = test system: murine peritoneal macrophages; tumor targets Daudi and CEM-CM3; assay: "In vitro-ex vivo" effect on the cytotoxic activity of peritoneal macrophages (lysis of 3H-TdR labelled tumor cells); parameters: species or system mouse (B6 D2 F1, C57B16); tumor targets human
Experimental: Assessment of the "in vitro-ex vivo" effect of ST 557, ST 563, ST 570 and ST 626 on the cytotoxic activity of peritoneal macrophages (M)
Male hybrid B6 D2 F1 aged 7-9 weeks and male inbred mice C57B16 aged 8 weeks were used (4 animals/group).
All the compounds were administered i.p. (25 mg/kg/day). ST 557 was also administered per os (100 mg/kg/day) from day -5 to day -1 (peritoneal exudate cell [PEC] harvesting at day 0).
PEC were obtained from sacrificed animals, 24 hours following the end of treatment, via repeated washings of the abdominal cavity. The peritoneal exudates obtained from each group of animals were pooled.
The macrophage percentage was assessed by counting in a Burker chamber; cell suspensions (concentration=2×10^6 M/ml) were prepared.
The macrophage cytotoxic activity was assessed using the following two tumor cell lines as targets: Daudi, derived from a human lymphoblastoma and CEM-CM3, derived from human lymphoblastic leukemia (both lines are disclosed in ATCC--American Type Culture Collection--Cell lines of hybridoma, 5th Ed.--1985).
The experimental procedure is substantially the same as that described by Herscowitz, H. B. (1981)--Manual of Macrophage Methodology. Dekker M, Editor.
In particular, samples of cell lines were labelled with ^3 H-TdR (tritiated thymidine) and their concentration was adjusted to 5×10^4 cells/ml. They were then added to the macrophage preparations (using 96-well microtiter plates) and the volumes were adjusted so as to obtain Effector (macrophage)/Target (tumor cell) ratios of 20:1; 40:1 and 80:1 in an overall volume of 0.3 ml/well.
Three replicates for each sample were prepared; after 48 and 72 hours of incubation at 37° C. in 5% CO2. Aliquots of 0.1 ml of supernatant were drawn out from each well and counted in a β-counter.
The macrophage cytotoxic activity results in a tumor cell lysis that causes the release of the radioactivity incorporated by the cells into the supernatant.
Based on the βeta-counter data (in cpm) this activity is expressed as the percentage of radioactivity released following lysis with respect to the radioactivity incorporated by the tumor cells.
The relevant formulas are as follows: [formula]
The measures carried out on the samples account for a certain degree of lysis occurring spontaneously in cultured tumor cells not exposed to macrophages. Total radioactivity incorporated by the tumor cells is calculated by conducting a lysis with 1% SDS in distilled water.

[6] = Tolerability after oral or intravenous administration; parameters: species or system mouse (Swiss albino); conditions: mouse, in vivo, 7 days observation, read-out: Tolerability, dose
Experimental: The test was conducted in male Swiss albino mice weighing 22-24 g.
A group of animals (4 animals/dose) which had been kept fasting for 18 hours, were orally administered the compounds ST 557, ST 563, ST 564 and ST 570 dissolved in twice distilled water.
A further group of animals, which had free access to food and water, were administered intravenously the same compounds dissolved in saline it pH 7. All the animals were kept under observation for 7 days.

[7] = 48 hours, E/T 20:1, 25 mg/kg/day i.p., B6 D2 F1
[8] = 48 hours, E/T 20:1, 25 mg/kg/day i.p., repeated experiment, B6 D2 F1
[9] = 48 hours, E/T 20:1, 25 mg/kg/day i.p., repeated experiment, C57B16 mice
[10] = 48 hours, E/T 40:1, 25 mg/kg/day i.p., B6 D2 F1
[11] = 48 hours, E/T 40:1, 25 mg/kg/day i.p., repeated experiment, B6 D2 F1
[12] = 48 hours, E/T 40:1, 25 mg/kg/day i.p., repeated experiment, C57B16 mice
[13] = 48 hours, E/T 80:1, 25 mg/kg/day i.p., repeated experiment, B6 D2 F1
[14] = 72 hours, E/T 20:1, 25 mg/kg/day i.p., B6 D2 F1
[15] = 72 hours, E/T 20:1, 25 mg/kg/day i.p., repeated experiment, B6 D2 F1
[16] = 72 hours, E/T 20:1, 25 mg/kg/day i.p., repeated experiment, C57B16 mice
[17] = 72 hours, E/T 40:1, 25 mg/kg/day i.p., B6 D2 F1
[18] = 72 hours, E/T 40:1, 25 mg/kg/day i.p., repeated experiment, B6 D2 F1
[19] = 72 hours, E/T 40:1, 25 mg/kg/day i.p., repeated experiment, C57B16 mice
[20] = 72 hours, E/T 80:1, 25 mg/kg/day i.p., repeated experiment, B6 D2 F1

SMILES	Fagocytizing cells ([2]; 25 mg/kg/day i.p.) [%]	Total n° SRBC phagocytized ([2]; 25 mg/kg/day i.p.)	SRBC per phagocytizing cell ([2]; 25 mg/kg/day i.p.)	% lysis of tumor target [5, 7] [%]	% lysis of tumor target [5, 8] [%]	% lysis of tumor target [5, 9] [%]	% lysis of tumor target [5, 10] [%]	% lysis of tumor target [5, 11]	% lysis of tumor target [5, 12] [%]	% lysis of tumor target [5, 13]	% lysis of tumor target [5, 14] [%]	% lysis of tumor target [5, 15] [%]	% lysis of tumor target [5, 16] [%]	% lysis of tumor target [5, 17] [%]	% lysis of tumor target [5, 18]	% lysis of tumor target [5, 19] [%]	% lysis of tumor target [5, 20]	other results
CCCNC1CCc2cc(OC(C)=O)c(OC(C)=O)cc2C1 (stereo not shown) [ST 608, 2-N-propylamino-6,7-diacetoxytetraline]	41.0	137.5	3.30	–	–	–	–	–	–	–	–	–	–	–	–	–	–	AUC (area under curve, incorporated radioactivity vs mytogen concentration) ([1]; LPS): 10333 ± 807 ×10^-3 and 18054 ± 970 ×10^-3 and 14490 ± 433 ×10^-3 and 15892 ± 339 ×10^-3; S.I. (stimulation index) ([1]; LPS): 1.27 and 1.10 and 1.20 and 1.06; AUC (area under curve, incorporated radioactivity vs mytogen concentration) ([1]; PHA): 183 ± 6 ×10^-3 and 128 ± 4 ×10^-3 and 146 ± 4 ×10^-3 and 233 ± 2 ×10^-3; S.I. (stimulation index) ([1]; PHA): 1.11 and 1.04 and 1.07 and 1.12
CCN(CC(O)c1ccccc1)C1CCc2cc(OC)c(OC)cc2C1 (stereo not shown) [ST 570, 2-[(N-ethyl, N-2-hydroxy-2-phenylethyl)amino]-6,7-dimethoxytetraline]	–	–	–	14.0 ± 0.7	9.0 ± 0.4	8.8 ± 1.2	34.7 ± 1.2	10.9 ± 1.0%	13.0 ± 0.5	19.0 ± 1.0%	19.3 ± 0.7	13.2 ± 0.2	10.8 ± 1.5	45.4 ± 2.1	15.7 ± 0.8%	14.9 ± 0.3	25.3 ± 1.0%	Fagocytizing cells [3]: 41.0%; SRBC per phagocytizing cell ([3]; average number of SRBC in each phagocyte): 3.3; % of inhibition of target tumor growth ([4]; E/T 20:1, 25 mg/kg/day i.p.): 38.3 ± 2.5%; % of inhibition of target tumor growth ([4]; E/T 40:1, 25 mg/kg/day i.p.): 71.0 ± 2.4%; % lysis of tumor target ([5]; 48 hours, E/T 80:1, 25 mg/kg/day i.p., repeated experiment, C57B16 mice): 14.6 ± 0.6%; % lysis of tumor target ([5]; 72 hours, E/T 80:1, 25 mg/kg/day i.p., repeated experiment, C57B16 mice): 16.2 ± 0.8%; MTD at 168 h ([6]; iv): > 20 mg/kg; MTD at 168 h ([6]; po, os, fasting 18 hours): > 50 mg/kg
COc1cc2c(cc1F)CCC(N)C2 (stereo not shown) [ST 626, 2-amino-6-fluoro-7-methoxytetraline]	41.0	137.5	3.30	7.4 ± 0.2	8.0 ± 0.8	11.8 ± 0.6	12.8 ± 0.8	18.7 ± 0.1% and 11.6 ± 0.7%	12.7 ± 0.1	18.8 ± 0.1% and 28.0 ± 5.6%	10.8 ± 0.3	12.3 ± 0.6	12.6 ± 0.1	17.6 ± 0.8	27.5 ± 0.6% and 14.3 ± 0.6%	13.5 ± 0.7	28.0 ± 0.7% and 32.0 ± 4.3%	Fagocytizing cells ([2]; 100 mg/kg/day os): 57.0%; Total n° SRBC phagocytized ([2]; 100 mg/kg/day os): 222.0; SRBC per phagocytizing cell ([2]; 100 mg/kg/day os): 3.89
